Data on two molecules can be found in ChEMBL document CHEMBL5113370, “Primed for global coronavirus pandemic: Emerging research and clinical outcome” (Eur J Med Chem, 2021).

Data set [1] can be described thus: Cytotoxicity against African green monkey Vero cells by CCK8 assay method. Type of data set: toxicity, cell-based. Particulars: chlorocebus sabaeus.
A short description of data set [2]: Selectivity index, ratio of IC50 for African green monkey Vero cells to IC50 for antiviral activity against SARS-CoV 2 nCoV-2019BetaCoV/Wuhan/WIV04/2019. Type of data set: toxicity. Conditions: read-out: Ratio IC50.
Data set [3] deals with SARS-CoV-2. Nature of the data set: Antiviral activity against SARS-CoV 2 nCoV-2019BetaCoV/Wuhan/WIV04/2019 infected in african green monkey Vero E6 cells measured after 48 hrs. Type of data set: functional, organism-based. Conditions: Severe acute respiratory syndrome coronavirus 2, nCoV-2019BetaCoV/Wuhan/WIV04/2019, Vero C1008, 48 h.
The subject of data set [4] is SARS-CoV-2. Nature of the data set: Antiviral activity against SARS-CoV 2 infected in african green monkey Vero E6 cells by immunofluorescence assay. Particulars: Severe acute respiratory syndrome coronavirus 2, Vero C1008. Format: functional, organism-based.

Molecules are shown by their SMILES.

For the molecule `NC(=O)c1ncn([C@@H]2O[C@H](CO)[C@@H](O)[C@H]2O)n1` [RIBAVIRIN], the CC50 in data set [1] is over 400 µM. In addition, the selectivity ratio in data set [2] is over 3.65. This molecule showed an EC50 in the data set on SARS-CoV-2 [3] of 110 µM.
`CCN(CC)CCOc1ccc2c(c1)C(=O)c1cc(OCCN(CC)CC)ccc1-2` [TILORONE] yielded an IC50 with SARS-CoV-2 [4] of 4.09 µM.
